According to US20080194585A1, “Fungicidal Pyrazine Derivatives” (priority 2005, published 2008):
Marks after values point to notes of the source that are not given here.

Tests used:
Details in all cases: 40 ppm (*)
Plasmopara viticola = experiment: Test D: grape downy mildew, spray after inoculation of grape seedlings; type: in vivo
Text: Upon removal, disease ratings were made. […] A dash (-) indicates no test results.

Phytophthora infestans = experiment: whole plant or invertebrate; type: in vivo
Septoria tritici = experiment: Test J: wheat leaf blotch, preventive spray on wheat seedlings; type: in vivo
Text: A dash (-) indicates no test results.

[1] = tested on: Puccinia recondita f. sp. tritici; experiment: Test K: wheat leaf rust, preventive spray on wheat seedlings
Botrytis cinerea = experiment: Test E: tomato botrytis, preventive spray on tomato seedlings
Septoria nodorum = experiment: Test H: wheat glum blotch, preventive spray on wheat seedlings
Procedure: (the causal agent of wheat glum blotch) and incubated in a saturated atmosphere at 20° C. for 48 h, and then moved to a growth chamber at 22° C. for 5 days, after which disease ratings were made.

[2] = tested on: Erysiphe graminis f. sp. tritici; experiment: Test L: wheat powdery mildew, preventive spray on wheat seedlings
Sclerotinia sclerotiorum = experiment: Test C: cucumber white mold, preventive spray on cucumber seedlings
Pythium aphanidermatum = experiment: Test A: bluegrass pythium blight, preventive spray on bluegrass seedlings
Rhizoctonia oryzae = experiment: Test G: turf brown patch, preventive spray on creeping bent grass seedlings
Procedure: (the causal agent of turf brown patch) and incubated in a saturated atmosphere at 27° C. for 24 h, and then moved to a growth chamber at 27° C. for 5 days, after which disease ratings were made.

[3] = tested on: Colletotrichum orbiculare; experiment: Test B: cucumber Colletotrichum anthracnose, preventive spray on cucumber seedlings

| SMILES | Test D disease control rating (Plasmopara viticola) | Test F disease control rating (Phytophthora infestans) | Test J disease control rating (Septoria tritici) | Test K disease control rating [1] | Test E disease control rating (Botrytis cinerea) | Test H disease control rating (Septoria nodorum) | Test L disease control rating [2] | Test C disease control rating (Sclerotinia sclerotiorum) | Test A disease control rating (Pythium aphanidermatum) | Test G disease control rating (Rhizoctonia oryzae) | Test B disease control rating [3] |
| --- | --- | --- | --- | --- | --- | --- | --- | --- | --- | --- | --- |
| CC(C)Cn1c(-c2c(F)cccc2F)c(Cl)nc(-n2ccnn2)c1=O [compound 215] | 29* % | 0* % | 0* % | 55* % | 99* % | 0* % | 0* % | 0* % | 0* % | 0* % | 0* % |
| CCC(C)Cn1c(-c2ccc(F)cc2Cl)c(Cl)nc(N2CCC=N2)c1=O (stereo not drawn) [compound 216] | 0* % | 0* % | 97* % | 94* % | 100* % | 89* % | 94* % | 0* % | 0* % | 0* % | 53* % |
| CCC(C)Cn1c(-c2ccc(F)cc2Cl)c(Cl)nc(N2CCC(=O)N2)c1=O (stereo not drawn) [compound 217] | 0* % | 0* % | 96* % | 86* % | 100* % | 86* % | 62* % | 90* % | 0* % | 0* % | 0* % |
| CC[C@H](C)Cn1c(-c2c(F)cc(F)cc2F)c(Cl)nc(N2CCC=N2)c1=O [compound 218] | 29* % | 0* % | 100* % | 100* % | 100* % | 100* % | 100* % | 99* % | 0* % | 43* % | 99* % |
| CC[C@H](C)Cn1c(-c2c(F)cc(F)cc2F)c(Cl)nc(-n2ccc(C)n2)c1=O [compound 219] | 36* % | 0* % | 100* % | 100* % | 100* % | 100* % | 100* % | 70* % | 0* % | 99* % | 100* % |
| N#Cc1nc(Cl)c(-c2c(F)cccc2F)n(Cc2ccc(Cl)cc2)c1=O [compound 220] | 0* % | 0* % | 25* % | 0* % | 0* % | 0* % | 0* % | 0* % | 0* % | 0* % | 0* % |
| O=c1c(-n2cccn2)nc(Cl)c(-c2c(F)cccc2F)n1Cc1ccc(Cl)cc1 [compound 221] | 0* % | 0* % | 100* % | 89* % | 99* % | 98* % | 0* % | 0* % | 0* % | 16* % | 0* % |
| O=c1c(-n2cncn2)nc(Cl)c(-c2c(F)cccc2F)n1Cc1ccc(Cl)cc1 [compound 222] | 0* % | 0* % | 86* % | 79* % | 92* % | 60* % | 0* % | 0* % | 0* % | 0* % | 0* % |
| CC1CCCCC1n1c(-c2c(F)cccc2F)c(Cl)nc(C#N)c1=O (stereo not drawn) [compound 223] | 0* % | 0* % | 17* % | 0* % | 0* % | 0* % | 51* % | 0* % | 0* % | 0* % | 0* % |
